Key:
[1] = molecular target: Vascular endothelial growth factor receptor 2 (Homo sapiens, UniProt P35968); test: (§1) Kinase Assay: Biochemical KDR kinase assays were performed in 96 well microtiter plates that were coated overnight with 75 μg/well of poly-Glu-Tyr (4:1) in 10 mM Phosphate Buffered Saline (PBS), pH 7.4. The coated plates were washed with 2 mls per well PBS+0.05% Tween-20 (PBS-T), blocked by incubation with PBS containing 1% BSA, then washed with 2 mls per well PBS-T prior to starting the reaction. Reactions were carried out in 100 μL reaction volumes containing 2.7 μM ATP in kinase buffer (50 mM Hepes buffer pH 7.4, 20 mM MgCl2, 0.1 mM MnCl2 and 0.2 mM Na3VO4). Test compounds were reconstituted in 100% DMSO and added to the reaction to give a final DMSO concentration of 5%. Reactions were initiated by the addition 20 ul per well of kinase buffer containing 200-300 ng purified cytoplasmic domain KDR protein (BPS Bioscience, San Diego, Calif.).
[2] = molecular target: Platelet-derived growth factor receptor beta (Homo sapiens, UniProt P09619); test: as §1, with “Biochemical PDGFRβ” for “Biochemical KDR”, “75 μg” for “75 μg/well”, “containing 36” for “containing 2.7”, “domain PDGFR-b” for “domain KDR”, “protein (Millipore). Following a 60 minute incubation at 30° C., the reactions were washed 2 mls per well PBS-T.” for “protein (BPS Bioscience, San Diego, Calif.).”
Sequence of Platelet-derived growth factor receptor beta (P09619 whole entry): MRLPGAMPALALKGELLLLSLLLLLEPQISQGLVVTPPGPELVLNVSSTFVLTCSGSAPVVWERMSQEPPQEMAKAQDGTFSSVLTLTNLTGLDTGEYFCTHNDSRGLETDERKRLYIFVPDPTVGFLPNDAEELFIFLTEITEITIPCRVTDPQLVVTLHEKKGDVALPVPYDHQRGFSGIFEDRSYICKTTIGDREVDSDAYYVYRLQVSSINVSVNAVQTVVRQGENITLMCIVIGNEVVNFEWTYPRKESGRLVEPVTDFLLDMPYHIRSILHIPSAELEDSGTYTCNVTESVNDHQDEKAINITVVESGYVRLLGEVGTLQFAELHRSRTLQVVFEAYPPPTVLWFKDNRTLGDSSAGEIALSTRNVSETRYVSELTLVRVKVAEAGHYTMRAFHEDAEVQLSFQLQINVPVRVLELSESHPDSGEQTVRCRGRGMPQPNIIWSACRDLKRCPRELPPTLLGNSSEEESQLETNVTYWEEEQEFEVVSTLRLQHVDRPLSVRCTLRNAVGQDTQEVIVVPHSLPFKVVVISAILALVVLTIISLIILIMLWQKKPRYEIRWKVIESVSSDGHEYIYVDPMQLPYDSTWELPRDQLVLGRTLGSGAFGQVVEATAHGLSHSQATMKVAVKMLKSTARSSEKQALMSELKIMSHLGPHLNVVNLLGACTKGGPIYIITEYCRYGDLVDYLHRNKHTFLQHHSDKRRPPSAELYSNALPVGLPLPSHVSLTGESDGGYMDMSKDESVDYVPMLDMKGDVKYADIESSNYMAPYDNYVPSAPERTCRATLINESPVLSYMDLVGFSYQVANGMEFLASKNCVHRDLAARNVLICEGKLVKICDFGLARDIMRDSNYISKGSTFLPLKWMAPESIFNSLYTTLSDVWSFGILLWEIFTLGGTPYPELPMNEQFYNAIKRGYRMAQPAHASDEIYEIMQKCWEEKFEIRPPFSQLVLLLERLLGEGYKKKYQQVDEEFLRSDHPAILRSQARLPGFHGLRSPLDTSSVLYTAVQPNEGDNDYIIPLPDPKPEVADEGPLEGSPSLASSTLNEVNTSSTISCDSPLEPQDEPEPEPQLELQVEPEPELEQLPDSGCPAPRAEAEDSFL

Sequence of Vascular endothelial growth factor receptor 2 (P35968 whole entry, the tested form may be a part): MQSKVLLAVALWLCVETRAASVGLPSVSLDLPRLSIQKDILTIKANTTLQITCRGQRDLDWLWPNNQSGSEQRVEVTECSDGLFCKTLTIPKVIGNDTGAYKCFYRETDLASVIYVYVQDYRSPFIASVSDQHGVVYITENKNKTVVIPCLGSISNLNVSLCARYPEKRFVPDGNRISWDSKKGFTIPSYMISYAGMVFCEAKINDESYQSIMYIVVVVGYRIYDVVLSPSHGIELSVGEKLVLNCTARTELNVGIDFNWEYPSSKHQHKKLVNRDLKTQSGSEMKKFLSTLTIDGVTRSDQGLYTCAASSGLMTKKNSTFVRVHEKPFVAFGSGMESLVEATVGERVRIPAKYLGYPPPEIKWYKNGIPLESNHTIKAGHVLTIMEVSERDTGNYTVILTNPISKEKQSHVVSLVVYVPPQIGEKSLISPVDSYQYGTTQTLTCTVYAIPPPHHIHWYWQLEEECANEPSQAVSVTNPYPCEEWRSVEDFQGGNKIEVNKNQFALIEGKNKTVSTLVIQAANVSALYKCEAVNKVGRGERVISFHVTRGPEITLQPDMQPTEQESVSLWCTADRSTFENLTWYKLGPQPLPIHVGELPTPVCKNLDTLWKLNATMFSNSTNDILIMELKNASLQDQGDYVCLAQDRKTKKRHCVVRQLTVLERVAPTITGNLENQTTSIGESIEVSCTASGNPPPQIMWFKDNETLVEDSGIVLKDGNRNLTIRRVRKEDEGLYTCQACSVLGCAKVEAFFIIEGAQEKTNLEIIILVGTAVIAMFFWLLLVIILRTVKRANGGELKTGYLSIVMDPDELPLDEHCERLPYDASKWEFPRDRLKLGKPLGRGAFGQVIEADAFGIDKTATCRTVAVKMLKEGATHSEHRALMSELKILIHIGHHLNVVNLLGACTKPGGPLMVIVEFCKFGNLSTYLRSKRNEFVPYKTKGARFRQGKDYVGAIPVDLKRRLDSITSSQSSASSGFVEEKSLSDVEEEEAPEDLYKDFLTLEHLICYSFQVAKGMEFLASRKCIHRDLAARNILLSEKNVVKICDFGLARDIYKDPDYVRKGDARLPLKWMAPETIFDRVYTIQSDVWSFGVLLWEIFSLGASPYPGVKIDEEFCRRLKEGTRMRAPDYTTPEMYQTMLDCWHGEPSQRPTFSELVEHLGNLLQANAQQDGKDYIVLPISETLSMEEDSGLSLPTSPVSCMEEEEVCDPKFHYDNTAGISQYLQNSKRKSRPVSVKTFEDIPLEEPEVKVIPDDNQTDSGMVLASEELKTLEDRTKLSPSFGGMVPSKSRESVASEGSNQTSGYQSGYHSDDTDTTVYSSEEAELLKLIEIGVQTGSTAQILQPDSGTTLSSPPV

CCc1cccc(NC(=O)Nc2ccc(-c3cc4ccccc4n3C(N)=O)cc2)c1
IC50 [1]: 3 nM | IC50 [2]: 10 nM

Reference: ChEMBL document CHEMBL3886759, “Indole-1-carboxamides as kinase inhibitors” (2016)
